Results reported in PubChem BioAssay AID2060611 (Molecular Pharmacology Branch, DTP, NCI, 2025).

Tested on: 628569-122-R-J1-PDC complex spheroid viability
Experiment: Anticancer human tumor 628569-122-R-J1-PDC patient-derived head and neck squamous carcinoma cell line growth inhibition [CLK]
Conditions: for IC50: curve of first compound; for viability, T/C: stronger effect = lower value; active = viability on the fitted dose curve at most 10% of control; inactive = the rest
How it was run: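 Multi-cell-type spheroids combined patient-derived tumor cells with HUVEC endothelial cells and human mesenchymal stem cells. Paired agents were dosed in half-log steps down from about clinical Cmax, or from 10 microM where Cmax was unknown.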

[1] = second compound 0.0316 µM, first compound 0.0316 µM
[2] = second compound 0.0316 µM, first compound 0.1 µM
[3] = second compound 0.0316 µM, first compound 0.316 µM
[4] = second compound 0.0316 µM, first compound 1 µM
[5] = second compound 0.0316 µM, first compound 3.16 µM
[6] = second compound 0.0316 µM, first compound 10 µM
[7] = second compound 0.1 µM, first compound 0.0316 µM
[8] = second compound 0.1 µM, first compound 0.1 µM
[9] = second compound 0.1 µM, first compound 0.316 µM
[10] = second compound 0.1 µM, first compound 1 µM
[11] = second compound 0.1 µM, first compound 3.16 µM
[12] = second compound 0.1 µM, first compound 10 µM
[13] = second compound 0.316 µM, first compound 0.0316 µM
[14] = second compound 0.316 µM, first compound 0.1 µM
[15] = second compound 0.316 µM, first compound 0.316 µM
[16] = second compound 0.316 µM, first compound 1 µM
[17] = second compound 0.316 µM, first compound 3.16 µM
[18] = second compound 0.316 µM, first compound 10 µM
[19] = second compound 1 µM, first compound 0.0316 µM
[20] = second compound 1 µM, first compound 0.1 µM
[21] = second compound 1 µM, first compound 0.316 µM
[22] = second compound 1 µM, first compound 1 µM
[23] = second compound 1 µM, first compound 3.16 µM
[24] = second compound 1 µM, first compound 10 µM
[25] = second compound 3.16 µM, first compound 0.0316 µM
[26] = second compound 3.16 µM, first compound 0.1 µM
[27] = second compound 3.16 µM, first compound 0.316 µM
[28] = second compound 3.16 µM, first compound 1 µM
[29] = second compound 3.16 µM, first compound 3.16 µM
[30] = second compound 3.16 µM, first compound 10 µM
[31] = second compound 10 µM, first compound 0.0316 µM
[32] = second compound 10 µM, first compound 0.1 µM
[33] = second compound 10 µM, first compound 0.316 µM
[34] = second compound 10 µM, first compound 1 µM
[35] = second compound 10 µM, first compound 3.16 µM
[36] = second compound 10 µM, first compound 10 µM
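Also: spheroids exposed to agents for seven days before readout.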
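For viability, T/C in this document: 100% = DMSO vehicle control viability.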

Nc1ccccc1NC(=O)c1ccc(CNC(=O)OCc2cccnc2)cc1 + CN1CCN(c2cc(C(=O)Nc3cc4cc(-c5cnn(C)c5)ccc4cn3)ccn2)CC1
7610 nM: IC50 (second compound 0.0316 µM)
active: viability, T/C [12] 4.63% | viability, T/C [18] 4.48% | viability, T/C [20] 7.04% | viability, T/C [21] 7.87% | viability, T/C [22] 6.5% | viability, T/C [23] 7% | viability, T/C [24] 7.23% | viability, T/C [25] 7.85% | viability, T/C [26] 3.97% | viability, T/C [27] 7.25% | viability, T/C [28] 5.7% | viability, T/C [29] 8.72% | viability, T/C [30] 6.19% | viability, T/C [31] 4.78% | viability, T/C [32] 5.48% | viability, T/C [33] 5.47% | viability, T/C [34] 5.41% | viability, T/C [35] 10% | viability, T/C [36] 1.39%
inactive: viability, T/C [1] 93.5% | viability, T/C [2] 103% | viability, T/C [3] 98.4% | viability, T/C [4] 162% | viability, T/C [5] 153% | viability, T/C [6] 27.7% | viability, T/C [7] 54.7% | viability, T/C [8] 63% | viability, T/C [9] 76.5% | viability, T/C [10] 90.9% | viability, T/C [11] 91.7% | viability, T/C [13] 40.1% | viability, T/C [14] 30.8% | viability, T/C [15] 37.5% | viability, T/C [16] 30.2% | viability, T/C [17] 7.28% | viability, T/C [19] 12.7%
< 31.6 nM: IC50 (second compound 0.316 µM) | IC50 (second compound 1 µM) | IC50 (second compound 3.16 µM) | IC50 (second compound 10 µM)
4780 nM: IC50 (second compound 0.1 µM)

CC(=O)O[C@H]1C(=O)[C@@]2(C)[C@H]([C@H](OC(=O)c3ccccc3)[C@]3(O)C[C@H](OC(=O)[C@H](O)[C@@H](NC(=O)c4ccccc4)c4ccccc4)C(C)=C1C3(C)C)[C@]1(OC(C)=O)CO[C@@H]1C[C@@H]2O + CN1CCN(c2cc(C(=O)Nc3cc4cc(-c5cnn(C)c5)ccc4cn3)ccn2)CC1
inactive: viability, T/C [1] 39.9% | viability, T/C [2] 34.4% | viability, T/C [3] 38% | viability, T/C [4] 41% | viability, T/C [5] 41.6% | viability, T/C [6] 54% | viability, T/C [7] 37.5% | viability, T/C [8] 33.4% | viability, T/C [9] 39.5% | viability, T/C [10] 42.7% | viability, T/C [11] 47.2% | viability, T/C [12] 67.3% | viability, T/C [13] 33.2% | viability, T/C [14] 41.9% | viability, T/C [15] 41.7% | viability, T/C [16] 41% | viability, T/C [17] 33.7% | viability, T/C [18] 49.4%
active: viability, T/C [19] 4.9% | viability, T/C [20] 5.86% | viability, T/C [21] 4.18% | viability, T/C [22] 3.31% | viability, T/C [23] 3.36% | viability, T/C [24] 4.26% | viability, T/C [25] 5.69% | viability, T/C [26] 4.99% | viability, T/C [27] 6.92% | viability, T/C [28] 3.95% | viability, T/C [29] 5.22% | viability, T/C [30] 3.46% | viability, T/C [31] 1.88% | viability, T/C [32] 4.8% | viability, T/C [33] 3.63% | viability, T/C [34] 4.24% | viability, T/C [35] 3.42% | viability, T/C [36] 1.77%
< 31.6 nM: IC50 (second compound 0.0316 µM) | IC50 (second compound 0.1 µM) | IC50 (second compound 0.316 µM) | IC50 (second compound 1 µM) | IC50 (second compound 3.16 µM) | IC50 (second compound 10 µM)

CC(C)CC(NC(=O)C(Cc1ccccc1)NC(=O)c1cnccn1)B(O)O (stereo not drawn) + CNC(=O)c1ccc(Nc2nc(OC3CCCC3)c3c(-c4ccc5nc(C)oc5c4)c[nH]c3n2)c(OC)c1
4.63 nM: IC50 (second compound 0.0316 µM)
inactive: viability, T/C (second compound 0.0316 µM, first compound 0.000949 µM) 106% | viability, T/C (second compound 0.0316 µM, first compound 0.003 µM) 73.5% | viability, T/C (second compound 0.0316 µM, first compound 0.00949 µM) 11.5% | viability, T/C (second compound 0.1 µM, first compound 0.000949 µM) 67.5% | viability, T/C (second compound 0.1 µM, first compound 0.003 µM) 47.9% | viability, T/C (second compound 0.316 µM, first compound 0.000949 µM) 48.9% | viability, T/C (second compound 0.316 µM, first compound 0.003 µM) 41.4% | viability, T/C (second compound 1 µM, first compound 0.000949 µM) 46.9% | viability, T/C (second compound 1 µM, first compound 0.003 µM) 29.3% | viability, T/C (second compound 1 µM, first compound 0.00949 µM) 4.76% | viability, T/C (second compound 1 µM, first compound 0.03 µM) 10.9% | viability, T/C (second compound 1 µM, first compound 0.0949 µM) 17.6% | viability, T/C (second compound 1 µM, first compound 0.3 µM) 13.2% | viability, T/C (second compound 3.16 µM, first compound 0.000949 µM) 46.5% | viability, T/C (second compound 3.16 µM, first compound 0.003 µM) 18% | viability, T/C (second compound 3.16 µM, first compound 0.00949 µM) 11.5% | viability, T/C (second compound 3.16 µM, first compound 0.03 µM) 21% | viability, T/C (second compound 3.16 µM, first compound 0.0949 µM) 9.26% | viability, T/C (second compound 3.16 µM, first compound 0.3 µM) 7.04% | viability, T/C (second compound 10 µM, first compound 0.000949 µM) 44.6% | viability, T/C (second compound 10 µM, first compound 0.003 µM) 19.1% | viability, T/C (second compound 10 µM, first compound 0.00949 µM) 9.08% | viability, T/C (second compound 10 µM, first compound 0.03 µM) 7.35% | viability, T/C (second compound 10 µM, first compound 0.0949 µM) 11.3% | viability, T/C (second compound 10 µM, first compound 0.3 µM) 12.8%
active: viability, T/C (second compound 0.0316 µM, first compound 0.03 µM) 2.71% | viability, T/C (second compound 0.0316 µM, first compound 0.0949 µM) 11.1% | viability, T/C (second compound 0.0316 µM, first compound 0.3 µM) 7.23% | viability, T/C (second compound 0.1 µM, first compound 0.00949 µM) 9.96% | viability, T/C (second compound 0.1 µM, first compound 0.03 µM) 3.01% | viability, T/C (second compound 0.1 µM, first compound 0.0949 µM) 8.44% | viability, T/C (second compound 0.1 µM, first compound 0.3 µM) 6.5% | viability, T/C (second compound 0.316 µM, first compound 0.00949 µM) 9.14% | viability, T/C (second compound 0.316 µM, first compound 0.03 µM) 2.35% | viability, T/C (second compound 0.316 µM, first compound 0.0949 µM) 4.07% | viability, T/C (second compound 0.316 µM, first compound 0.3 µM) 3.8%
< 0.949 nM: IC50 (second compound 0.316 µM) | IC50 (second compound 1 µM) | IC50 (second compound 3.16 µM) | IC50 (second compound 10 µM)
2.65 nM: IC50 (second compound 0.1 µM)

COC1C=CCC(C)C(C)S(=O)(=O)NC(=O)c2ccc3c(c2)N(CC2CCC21)CC1(CCCc2cc(Cl)ccc21)CO3 (stereo not drawn) + CN1CCN(c2cc(C(=O)Nc3cc4cc(-c5cnn(C)c5)ccc4cn3)ccn2)CC1
inactive: viability, T/C [1] 95.5% | viability, T/C [2] 89.9% | viability, T/C [3] 83.1% | viability, T/C [4] 51.5% | viability, T/C [5] 55% | viability, T/C [6] 40.1% | viability, T/C [7] 85% | viability, T/C [8] 68.4% | viability, T/C [9] 63.3% | viability, T/C [10] 40.8% | viability, T/C [11] 46.4% | viability, T/C [12] 43.6% | viability, T/C [13] 36.8% | viability, T/C [14] 34% | viability, T/C [15] 30.2% | viability, T/C [16] 20.7% | viability, T/C [17] 13.6% | viability, T/C [18] 13.3%
active: viability, T/C [19] 7.48% | viability, T/C [20] 5.89% | viability, T/C [21] 7.05% | viability, T/C [22] 7.13% | viability, T/C [23] 5.61% | viability, T/C [24] 7.24% | viability, T/C [25] 5.37% | viability, T/C [26] 6.94% | viability, T/C [27] 7.7% | viability, T/C [28] 7.72% | viability, T/C [29] 7.14% | viability, T/C [30] 6.03% | viability, T/C [31] 3.03% | viability, T/C [32] 1.85% | viability, T/C [33] 2.06% | viability, T/C [34] 6.57% | viability, T/C [35] 2.43% | viability, T/C [36] 1.39%
< 31.6 nM: IC50 (second compound 0.316 µM) | IC50 (second compound 1 µM) | IC50 (second compound 3.16 µM) | IC50 (second compound 10 µM)
1750 nM: IC50 (second compound 0.0316 µM)
773 nM: IC50 (second compound 0.1 µM)
